In ChEMBL document CHEMBL2424648, “Carbonic anhydrase inhibitors: synthesis and inhibition of the human carbonic anhydrase isoforms I, II, VII, IX and XII with benzene sulfonamides incorporating 4,5,6,7-tetrabromophthalimide moiety” (Bioorg Med Chem, 2013):

Tests used:
Carbonic anhydrase 12 = Carbonic anhydrase 12 (Homo sapiens, UniProt O43570)
Carbonic anhydrase 1 = Carbonic anhydrase 1 (Homo sapiens, UniProt P00915)
Carbonic anhydrase 9 = Carbonic anhydrase 9 (Homo sapiens, UniProt Q16790)
Carbonic anhydrase 2 = Carbonic anhydrase 2 (Homo sapiens, UniProt P00918)

Chain of Carbonic anhydrase 1 (P00915 whole entry): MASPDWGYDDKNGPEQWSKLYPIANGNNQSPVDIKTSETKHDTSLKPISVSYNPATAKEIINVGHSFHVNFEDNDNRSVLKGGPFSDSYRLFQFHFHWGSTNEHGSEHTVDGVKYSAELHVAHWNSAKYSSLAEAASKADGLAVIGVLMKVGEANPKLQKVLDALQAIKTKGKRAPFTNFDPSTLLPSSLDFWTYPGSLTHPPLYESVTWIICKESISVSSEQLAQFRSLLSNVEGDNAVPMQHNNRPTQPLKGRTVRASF
Chain of Carbonic anhydrase 12 (O43570 whole entry): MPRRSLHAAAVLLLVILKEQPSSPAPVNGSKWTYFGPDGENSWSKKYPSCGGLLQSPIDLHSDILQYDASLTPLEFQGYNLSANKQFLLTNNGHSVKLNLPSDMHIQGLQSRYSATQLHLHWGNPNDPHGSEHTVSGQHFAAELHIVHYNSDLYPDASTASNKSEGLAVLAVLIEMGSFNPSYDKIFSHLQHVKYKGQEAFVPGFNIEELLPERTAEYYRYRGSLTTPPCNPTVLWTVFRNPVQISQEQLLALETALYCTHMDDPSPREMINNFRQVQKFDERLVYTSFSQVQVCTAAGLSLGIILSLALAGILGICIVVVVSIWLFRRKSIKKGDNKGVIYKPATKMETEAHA

| Compound | Ki (Carbonic anhydrase 12) [nM] | Ki (Carbonic anhydrase 1) [nM] | Ki (Carbonic anhydrase 9) [nM] | Ki (Carbonic anhydrase 2) [nM] |
| --- | --- | --- | --- | --- |
| NS(=O)(=O)c1ccc(CCNC(=S)Nc2ccc(-c3c4ccc(=O)cc-4oc4cc(O)ccc34)c(C(=O)O)c2)cc1 | 5 | – | – | – |
| NS(=O)(=O)c1ccccc1N1C(=O)c2c(Br)c(Br)c(Br)c(Br)c2C1=O | 197 | > 10000 | 234 | 190 |
| NS(=O)(=O)c1ccc(CN2C(=O)c3c(Br)c(Br)c(Br)c(Br)c3C2=O)cc1 | 12.3 | 251 | 12.3 | – |
| NS(=O)(=O)c1ccc(CCN2C(=O)c3c(Br)c(Br)c(Br)c(Br)c3C2=O)cc1 | 10.2 | – | 15.9 | – |

The remaining lines, values ahead:

| Ki (Carbonic anhydrase 12) [nM] | Ki (Carbonic anhydrase 1) [nM] | Ki (Carbonic anhydrase 9) [nM] | Ki (Carbonic anhydrase 2) [nM] | Compound |
| --- | --- | --- | --- | --- |
| 19 | 340 | – | – | NS(=O)(=O)c1cccc(N2C(=O)c3c(Br)c(Br)c(Br)c(Br)c3C2=O)c1 |
| 7.5 | 770 | 9.4 | 96 | NS(=O)(=O)c1ccc(N2C(=O)c3c(Br)c(Br)c(Br)c(Br)c3C2=O)c(F)c1 |
| 5.9 | 208 | 8.5 | 55 | NS(=O)(=O)c1ccc(N2C(=O)c3c(Br)c(Br)c(Br)c(Br)c3C2=O)c(Cl)c1 |
| 6.5 | 143 | 8.8 | 47 | NS(=O)(=O)c1ccc(N2C(=O)c3c(Br)c(Br)c(Br)c(Br)c3C2=O)c(Br)c1 |
| 6.1 | 432 | 9.1 | 68 | NS(=O)(=O)c1ccc(N2C(=O)c3c(Br)c(Br)c(Br)c(Br)c3C2=O)cc1 |
